Results from patent US10953027B2, “Active agents and methods of their use for the treatment of metabolic disorders and nonalcoholic fatty liver disease” (Flagship Pioneering Innovations V, Inc., priority 2018, dated 2021).

Assays:
Type in all cases: in vitro ADME
[1] = Assay 1. Stability in Simulated Gastric Fluid (SGF); conditions: 1 μM, 37° C., SGF pH 1.6 with pepsin
In short: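 Acylated compounds at a final 1 μM (diluted from 1 mM DMSO stock) were incubated at 37 °C in SGF of pH 1.6 NaCl buffer with FaSSIF powder and 0.1 mg/mL pepsin. Aliquots were quenched with acetonitrile at T0 and regular intervals, and degradation rates were determined by LC/MS.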

[2] = Assay 2. Stability in Simulated Intestinal Fluid (SIF); conditions: 1 μM, 37° C., SIF pH 6.7 with pancreatin
In short: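 Acylated compounds at 1 μM (from 1 mM DMSO stock) in fresh SIF: FaSSIF with pancreatin in pH 6.7 phosphate buffer, agitated at 37 °C. Aliquots from T0 onward quenched with 1 volume acetonitrile; LC/MS gives degradation rates.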

[3] = Assay 3. Fecal Incubation Stability; conditions: 1 or 10 μM, human fecal slurry, anaerobic

SMILES: CCC(=O)O[C@H]1[C@@H](OC(=O)CCc2c[nH]c3ccccc23)OC[C@@H](OC(=O)CC)[C@H]1OC(=O)CC [Compound 126, (2R,3R,4R,5R)-3,4,5-tris(propanoyloxy)oxan-2-yl 3-(1H-indol-3-yl)propanoate]
- Assay 1 (SGF) (% Remaining @ 1 hours) [1]: C (C: >75% of the tested compound remaining)
- Assay 2 (SIF) (% @ Remaining 4 hours) [2]: A (A: <25% of the tested compound remaining)
- Assay 3 (% Remaining at 24 h) [3]: A (A: <25% of the tested compound remaining)

SMILES: CCC(=O)Oc1cc(OC(=O)CC)c2c(c1)O[C@H](c1ccc(OC(=O)CC)c(OC(=O)CC)c1)[C@H](OC(=O)CC)C2 [Compound 236, (2R,3R)-2-[3,4-bis(propanoyloxy)phenyl]-5,7-bis(propanoyloxy)-3,4-dihydro-2H-1-benzopyran-3-yl Propanoate]
- Assay 1 (SGF) (% Remaining @ 1 hours) [1]: B (B: 25-75% of the tested compound remaining)
- Assay 2 (SIF) (% @ Remaining 4 hours) [2]: A (A: <25% of the tested compound remaining)
- Assay 3 (% Remaining at 24 h) [3]: A (A: <25% of the tested compound remaining)

SMILES: O=C(CCc1c[nH]c2ccccc12)Oc1ccc(/C=C/c2cc(OC(=O)CCc3c[nH]c4ccccc34)cc(OC(=O)CCc3c[nH]c4ccccc34)c2)cc1 [Compound 259, 4-[(1E)-2-[3,5-bis({[3-(1H-indol-3-yl)propanoyl]oxy})phenyl]ethenyl]phenyl 3-(1H-indol-3-yl)propanoate]
- Assay 1 (SGF) (% Remaining @ 1 hours) [1]: C (C: >75% of the tested compound remaining)
- Assay 2 (SIF) (% @ Remaining 4 hours) [2]: C (C: >75% of the tested compound remaining)
- Assay 3 (% Remaining at 24 h) [3]: B (B: 25-75% of the tested compound remaining)

SMILES: CCC(=O)O[C@@H]1[C@H](OC(=O)CC)COC(O)[C@@H]1OC(=O)CC (stereo partly drawn) [Compound 137, (3R,4R,5R)-2-hydroxy-4,5-bis(propanoyloxy)oxan-3-yl Propanoate]
- Assay 1 (SGF) (% Remaining @ 1 hours) [1]: C (C: >75% of the tested compound remaining)
- Assay 2 (SIF) (% @ Remaining 4 hours) [2]: B (B: 25-75% of the tested compound remaining)
- Assay 3 (% Remaining at 24 h) [3]: B (B: 25-75% of the tested compound remaining)

SMILES: CCCC(=O)O[C@@H]1[C@@H](OC(=O)CCC)[C@@H](OC(=O)CCc2c[nH]c3ccccc23)OC[C@H]1OC(=O)CCC [Compound 128, (2R,3R,4S,5R)-4,5-bis(butanoyloxy)-2-{[3-(1H-indol-3-yl)propanoyl]oxy}oxan-3-yl Butanoate]
- Assay 1 (SGF) (% Remaining @ 1 hours) [1]: C (C: >75% of the tested compound remaining)
- Assay 2 (SIF) (% @ Remaining 4 hours) [2]: A (A: <25% of the tested compound remaining)
- Assay 3 (% Remaining at 24 h) [3]: A (A: <25% of the tested compound remaining)

SMILES: CCC(=O)O[C@@H]1[C@@H](OC(=O)CC)[C@H](C)O[C@@H](OC(=O)/C=C/c2c[nH]c3ccccc23)[C@@H]1OC(=O)CC [Compound 134, (2S,3R,4R,5S,6S)-6-methyl-3,4,5-tris(propanoyloxy)oxan-2-yl (2E)-3-(1H-indol-3-yl)prop-2-enoate]
- Assay 1 (SGF) (% Remaining @ 1 hours) [1]: C (C: >75% of the tested compound remaining)
- Assay 2 (SIF) (% @ Remaining 4 hours) [2]: B (B: 25-75% of the tested compound remaining)
- Assay 3 (% Remaining at 24 h) [3]: A (A: <25% of the tested compound remaining)

SMILES: CCC(=O)O[C@@H]1[C@@H](OC(=O)CC)[C@H](OC(=O)Cc2c[nH]c3ccccc23)OC[C@@H]1OC(=O)CC [Compound 135, (3S,4S,5R,6S)-6-{[2-(1H-indol-3-yl)acetyl]oxy}-4,5-bis(propanoyloxy)oxan-3-yl Propanoate]
- Assay 1 (SGF) (% Remaining @ 1 hours) [1]: C (C: >75% of the tested compound remaining)
- Assay 2 (SIF) (% @ Remaining 4 hours) [2]: A (A: <25% of the tested compound remaining)
- Assay 3 (% Remaining at 24 h) [3]: A (A: <25% of the tested compound remaining)

SMILES: CCC(=O)O[C@@H]1[C@@H](OC(=O)CC)[C@H](C)O[C@@H](OC(=O)Cc2c[nH]c3ccccc23)[C@@H]1OC(=O)CC [Compound 147, (2S,3R,4R,5S,6S)-2-{[2-(1H-indol-3-yl)acetyl]oxy}-6-methyl-4,5-bis(propanoyloxy)oxan-3-yl Propanoate]
- Assay 1 (SGF) (% Remaining @ 1 hours) [1]: C (C: >75% of the tested compound remaining)
- Assay 2 (SIF) (% @ Remaining 4 hours) [2]: A (A: <25% of the tested compound remaining)
- Assay 3 (% Remaining at 24 h) [3]: A (A: <25% of the tested compound remaining)

SMILES: CCC(=O)OC[C@H]1O[C@H](OC(=O)Cc2c[nH]c3ccccc23)[C@H](OC(=O)CC)[C@@H](OC(=O)CC)[C@@H]1OC(=O)CC [Compound 146, [(2R,3R,4S,5R,6R)-6-{[2-(1H-indol-3-yl)acetyl]oxy}-3,4,5-tris(propanoyloxy)oxan-2-yl]methyl Propanoate]
- Assay 1 (SGF) (% Remaining @ 1 hours) [1]: C (C: >75% of the tested compound remaining)
- Assay 2 (SIF) (% @ Remaining 4 hours) [2]: A (A: <25% of the tested compound remaining)
- Assay 3 (% Remaining at 24 h) [3]: A (A: <25% of the tested compound remaining)

SMILES: CCCC(=O)O[C@@H]1[C@@H](OC(=O)CCC)[C@@H](OC)OC[C@H]1OC(=O)CCC [Compound 104, (2S,3R,4S,5R)-4,5-bis(butanoyloxy)-2-methoxyoxan-3-yl Butanoate]
- Assay 1 (SGF) (% Remaining @ 1 hours) [1]: B (B: 25-75% of the tested compound remaining)
- Assay 2 (SIF) (% @ Remaining 4 hours) [2]: A (A: <25% of the tested compound remaining)
- Assay 3 (% Remaining at 24 h) [3]: A (A: <25% of the tested compound remaining)

SMILES: CCCC(=O)O[C@H]1[C@H](OC(=O)CCC)[C@H](OC(=O)CCc2c[nH]c3ccccc23)O[C@@H](C)[C@H]1OC(=O)CCC [Compound 117, (2S,3S,4R,5R,6S)-4,5-bis(butanoyloxy)-2-{[3-(1H-indol-3-yl)propanoyl]oxy}-6-methyloxan-3-yl Butanoate]
- Assay 1 (SGF) (% Remaining @ 1 hours) [1]: C (C: >75% of the tested compound remaining)
- Assay 2 (SIF) (% @ Remaining 4 hours) [2]: A (A: <25% of the tested compound remaining)
- Assay 3 (% Remaining at 24 h) [3]: A (A: <25% of the tested compound remaining)

SMILES: CO[C@@H]1OC[C@@H](OC(C)=O)[C@H](OC(C)=O)[C@H]1OC(C)=O [Compound 45, (2R,3R,4S,5R)-2-methoxytetrahydro-2H-pyran-3,4,5-triyl Triacetate]
- Assay 1 (SGF) (% Remaining @ 1 hours) [1]: C (C: >75% of the tested compound remaining)
- Assay 2 (SIF) (% @ Remaining 4 hours) [2]: B (B: 25-75% of the tested compound remaining)
- Assay 3 (% Remaining at 24 h) [3]: B (B: 25-75% of the tested compound remaining)

SMILES: CCC(=O)O[C@H]1[C@H](OC)OC[C@@H](OC(=O)CC)[C@H]1OC(=O)CC [Compound 84, (2R,3R,4R,5R)-2-methoxy-3,5-bis(propanoyloxy)oxan-4-yl Propanoate]
- Assay 1 (SGF) (% Remaining @ 1 hours) [1]: C (C: >75% of the tested compound remaining)
- Assay 2 (SIF) (% @ Remaining 4 hours) [2]: C (C: >75% of the tested compound remaining)
- Assay 3 (% Remaining at 24 h) [3]: B (B: 25-75% of the tested compound remaining)

SMILES: O=C(CCc1c[nH]c2ccccc12)O[C@@H]1OC[C@@H](OC(=O)CCc2c[nH]c3ccccc23)[C@@H](OC(=O)CCc2c[nH]c3ccccc23)[C@H]1OC(=O)CCc1c[nH]c2ccccc12 [Compound 113, (2S,3R,4R,5R)-3,4,5-tris({[3-(1H-indol-3-yl)propanoyl]oxy})oxan-2-yl 3-(1H-indol-3-yl)propanoate]
- Assay 1 (SGF) (% Remaining @ 1 hours) [1]: C (C: >75% of the tested compound remaining)
- Assay 2 (SIF) (% @ Remaining 4 hours) [2]: A (A: <25% of the tested compound remaining)
- Assay 3 (% Remaining at 24 h) [3]: A (A: <25% of the tested compound remaining)

SMILES: CCC(=O)OC[C@H]1O[C@@H](OC(=O)Cc2c[nH]c3ccccc23)[C@H](OC(=O)CC)[C@@H](OC(=O)CC)[C@@H]1OC(=O)CC [Compound 143, [(2R,3R,4S,5R,6S)-6-{[2-(1H-indol-3-yl)acetyl]oxy}-3,4,5-tris(propanoyloxy)oxan-2-yl]methyl Propanoate]
- Assay 1 (SGF) (% Remaining @ 1 hours) [1]: C (C: >75% of the tested compound remaining)
- Assay 2 (SIF) (% @ Remaining 4 hours) [2]: A (A: <25% of the tested compound remaining)
- Assay 3 (% Remaining at 24 h) [3]: A (A: <25% of the tested compound remaining)

SMILES: CCC(=O)O[C@H]1OC[C@@H](OC(=O)CC)[C@@H](OC(=O)CC)[C@H]1OC(=O)CC [Compound 133, (2R,3R,4R,5R)-3,4,5-tris(propanoyloxy)oxan-2-yl Propanoate]
- Assay 1 (SGF) (% Remaining @ 1 hours) [1]: C (C: >75% of the tested compound remaining)
- Assay 2 (SIF) (% @ Remaining 4 hours) [2]: A (A: <25% of the tested compound remaining)
- Assay 3 (% Remaining at 24 h) [3]: A (A: <25% of the tested compound remaining)

SMILES: CCCC(=O)O[C@@H]1[C@@H](OC(=O)CCC)[C@H](C)O[C@@H](OC(=O)CCc2c[nH]c3ccccc23)[C@@H]1OC(=O)CCC [Compound 116, (2S,3R,4R,5S,6S)-4,5-bis(butanoyloxy)-2-{[3-(1H-indol-3-yl)propanoyl]oxy}-6-methyloxan-3-yl Butanoate]
- Assay 1 (SGF) (% Remaining @ 1 hours) [1]: C (C: >75% of the tested compound remaining)
- Assay 2 (SIF) (% @ Remaining 4 hours) [2]: A (A: <25% of the tested compound remaining)
- Assay 3 (% Remaining at 24 h) [3]: A (A: <25% of the tested compound remaining)

SMILES: CCC(=O)O[C@@H]1[C@@H](OC(=O)CC)[C@@H](OC(=O)Cc2c[nH]c3ccccc23)OC[C@@H]1OC(=O)CC [Compound 140, (3S,4S,5R,6R)-6-{[2-(1H-indol-3-yl)acetyl]oxy}-4,5-bis(propanoyloxy)oxan-3-yl Propanoate]
- Assay 1 (SGF) (% Remaining @ 1 hours) [1]: C (C: >75% of the tested compound remaining)
- Assay 2 (SIF) (% @ Remaining 4 hours) [2]: A (A: <25% of the tested compound remaining)
- Assay 3 (% Remaining at 24 h) [3]: A (A: <25% of the tested compound remaining)

SMILES: CCC(=O)O[C@@H]1[C@@H](OC(=O)CC)[C@@H](OC(=O)/C=C/c2c[nH]c3ccccc23)OC[C@H]1OC(=O)CC [Compound 125, (2R,3R,4S,5R)-3,4,5-tris(propanoyloxy)oxan-2-yl (2E)-3-(1H-indol-3-yl)prop-2-enoate]
- Assay 1 (SGF) (% Remaining @ 1 hours) [1]: C (C: >75% of the tested compound remaining)
- Assay 2 (SIF) (% @ Remaining 4 hours) [2]: A (A: <25% of the tested compound remaining)
- Assay 3 (% Remaining at 24 h) [3]: A (A: <25% of the tested compound remaining)
